Source: paper PMC4831468, “White collar 1‐induced photolyase expression contributes to UV‐tolerance of Ustilago maydis” (MicrobiologyOpen, 2015)

Tests used:
Assay type in all cases: binding
Phr1 [1] = molecular target: T1, Phr1 (Mycosarcoma maydis, UniProt A0A0D1DNG6); test: UV-Vis absorption spectroscopy of copurified chromophore; blue-light photoreduction; details: copurified from E. coli; photoreduction with 10 mM DTT, pH 7.5, 15 C
T1 construct: gene UMAG_06079
T1 sequence (A0A0D1DNG6 1-655): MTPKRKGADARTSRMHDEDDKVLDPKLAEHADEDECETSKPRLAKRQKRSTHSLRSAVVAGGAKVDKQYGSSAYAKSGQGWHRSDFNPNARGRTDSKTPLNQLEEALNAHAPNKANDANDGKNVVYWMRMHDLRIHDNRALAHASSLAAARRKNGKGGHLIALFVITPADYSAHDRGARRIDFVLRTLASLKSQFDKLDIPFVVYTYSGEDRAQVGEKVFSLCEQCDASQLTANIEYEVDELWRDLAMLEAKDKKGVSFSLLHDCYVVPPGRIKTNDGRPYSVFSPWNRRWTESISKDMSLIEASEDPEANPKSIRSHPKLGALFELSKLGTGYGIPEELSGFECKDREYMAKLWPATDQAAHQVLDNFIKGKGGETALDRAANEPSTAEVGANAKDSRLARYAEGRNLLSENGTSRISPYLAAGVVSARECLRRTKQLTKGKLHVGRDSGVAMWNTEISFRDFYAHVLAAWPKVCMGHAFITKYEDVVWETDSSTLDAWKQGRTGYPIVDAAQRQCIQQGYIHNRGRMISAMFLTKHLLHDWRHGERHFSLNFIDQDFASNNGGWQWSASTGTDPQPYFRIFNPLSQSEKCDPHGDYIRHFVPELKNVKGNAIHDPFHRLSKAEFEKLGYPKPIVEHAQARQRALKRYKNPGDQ

Cry1 = molecular target: T2, Cry1 (Mycosarcoma maydis, UniProt A0A0D1CDQ8); test: as above; details: copurified from E. coli; photoreduction with 10 mM DTT, pH 7.5, 15 C
T2 construct: gene UMAG_01131; pET51b, 10xHis- and Strep-tagged, synthetic cDNA, E. coli BL21(DE3)
T2 sequence (A0A0D1CDQ8 1-881): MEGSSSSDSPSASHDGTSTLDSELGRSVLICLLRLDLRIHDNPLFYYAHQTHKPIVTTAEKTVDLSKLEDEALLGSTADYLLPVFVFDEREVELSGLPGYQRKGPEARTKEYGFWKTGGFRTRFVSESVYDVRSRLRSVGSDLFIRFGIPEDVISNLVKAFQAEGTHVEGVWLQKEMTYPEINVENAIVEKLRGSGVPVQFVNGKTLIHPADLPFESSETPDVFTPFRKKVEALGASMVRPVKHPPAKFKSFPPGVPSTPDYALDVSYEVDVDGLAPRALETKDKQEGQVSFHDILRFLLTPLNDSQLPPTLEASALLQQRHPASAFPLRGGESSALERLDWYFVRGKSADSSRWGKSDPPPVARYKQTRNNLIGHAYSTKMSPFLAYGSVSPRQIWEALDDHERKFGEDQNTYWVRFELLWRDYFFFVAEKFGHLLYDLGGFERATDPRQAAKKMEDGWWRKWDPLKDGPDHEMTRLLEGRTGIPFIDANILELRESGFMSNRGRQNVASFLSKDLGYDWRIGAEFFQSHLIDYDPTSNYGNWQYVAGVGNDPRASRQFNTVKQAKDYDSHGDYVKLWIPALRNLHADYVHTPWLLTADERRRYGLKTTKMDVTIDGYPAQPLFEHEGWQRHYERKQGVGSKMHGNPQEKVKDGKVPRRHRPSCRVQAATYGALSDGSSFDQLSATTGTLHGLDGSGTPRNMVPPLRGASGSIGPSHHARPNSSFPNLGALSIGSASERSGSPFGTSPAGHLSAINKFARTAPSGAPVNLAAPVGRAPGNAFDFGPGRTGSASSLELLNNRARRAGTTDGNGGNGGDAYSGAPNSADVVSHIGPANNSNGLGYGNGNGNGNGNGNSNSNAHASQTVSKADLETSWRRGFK

Phr2 = molecular target: T3, Phr2 (Mycosarcoma maydis, UniProt A0A0D1E060); test: as above; details: copurified from E. coli; photoreduction with 10 mM DTT, pH 7.5, 15 C
T3 construct: gene UMAG_02144; pET51b, 10xHis- and Strep-tagged, E. coli Rosetta(DE3)
T3 sequence (A0A0D1E060 1-684): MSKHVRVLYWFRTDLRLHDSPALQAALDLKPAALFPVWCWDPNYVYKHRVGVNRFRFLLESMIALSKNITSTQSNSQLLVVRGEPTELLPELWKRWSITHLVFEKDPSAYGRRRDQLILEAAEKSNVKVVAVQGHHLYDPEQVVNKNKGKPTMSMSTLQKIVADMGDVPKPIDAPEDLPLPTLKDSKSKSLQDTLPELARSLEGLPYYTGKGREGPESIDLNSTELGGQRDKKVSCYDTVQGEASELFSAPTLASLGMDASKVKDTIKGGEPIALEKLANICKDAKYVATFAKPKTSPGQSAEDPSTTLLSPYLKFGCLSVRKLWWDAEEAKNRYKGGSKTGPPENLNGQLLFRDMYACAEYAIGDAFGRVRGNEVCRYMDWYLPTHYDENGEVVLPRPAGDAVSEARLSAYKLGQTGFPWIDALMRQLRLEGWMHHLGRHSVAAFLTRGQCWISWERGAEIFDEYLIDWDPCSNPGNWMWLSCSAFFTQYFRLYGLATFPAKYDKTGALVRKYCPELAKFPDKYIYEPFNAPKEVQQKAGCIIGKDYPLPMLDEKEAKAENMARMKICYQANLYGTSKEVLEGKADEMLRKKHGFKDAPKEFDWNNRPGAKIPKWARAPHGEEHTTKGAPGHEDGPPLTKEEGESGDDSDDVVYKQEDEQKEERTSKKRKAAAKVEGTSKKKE

Cry2 [2] = molecular target: T4, Cry2 (Mycosarcoma maydis, UniProt A0A0D1DUB1); test: as above; details: copurified from E. coli; photoreduction with 10 mM DTT, pH 7.5, 15 C
T4 construct: gene UMAG_05917; pET51b, 10xHis- and Strep-tagged, E. coli Arctic Express
T4 sequence (A0A0D1DUB1 1-623): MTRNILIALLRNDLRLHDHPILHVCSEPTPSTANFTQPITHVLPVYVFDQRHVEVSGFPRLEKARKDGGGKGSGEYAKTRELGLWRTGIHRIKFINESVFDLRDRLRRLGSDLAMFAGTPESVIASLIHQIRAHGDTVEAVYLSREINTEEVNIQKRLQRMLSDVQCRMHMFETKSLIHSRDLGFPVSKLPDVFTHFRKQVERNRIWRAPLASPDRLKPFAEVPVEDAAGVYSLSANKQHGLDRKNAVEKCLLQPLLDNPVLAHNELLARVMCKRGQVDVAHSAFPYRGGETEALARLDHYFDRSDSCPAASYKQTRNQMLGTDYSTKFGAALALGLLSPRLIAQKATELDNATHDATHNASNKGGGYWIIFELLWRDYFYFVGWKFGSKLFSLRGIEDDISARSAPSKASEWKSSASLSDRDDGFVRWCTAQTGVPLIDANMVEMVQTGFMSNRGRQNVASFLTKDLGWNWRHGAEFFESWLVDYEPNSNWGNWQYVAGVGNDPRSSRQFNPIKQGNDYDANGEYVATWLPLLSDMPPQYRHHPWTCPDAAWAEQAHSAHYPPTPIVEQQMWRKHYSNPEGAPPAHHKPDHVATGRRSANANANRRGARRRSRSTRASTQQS

Phr1 [3] = molecular target: T1, Phr1; test: UV-Vis absorption spectroscopy of copurified chromophore (about […] nm peak); details: copurified from E. coli; antenna chromophore, second site beside FAD; assigned from spectrum only
Cry2 [4] = molecular target: T4, Cry2; test: as above; details: copurified from E. coli; antenna chromophore, second site beside FAD; assigned from spectrum only

Compound | UV-Vis absorption spectroscopy of copurified chromophore; blue-light photoreduct (Phr1 [1]) | UV-Vis absorption spectroscopy of copurified chromophore; blue-light photoreduct (Cry1) | UV-Vis absorption spectroscopy of copurified chromophore; blue-light photoreduct (Phr2) | UV-Vis absorption spectroscopy of copurified chromophore; blue-light photoreduct (Cry2 [2]) | UV-Vis absorption spectroscopy of copurified chromophore (about 380 nm peak) (Phr1 [3]) | UV-Vis absorption spectroscopy of copurified chromophore (about 380 nm peak) (Cry2 [4])
Cc1cc2nc3c(=O)[nH]c(=O)nc-3n(C[C@H](O)[C@H](O)[C@H](O)COP(=O)(O)OP(=O)(O)OC[C@H]3O[C@@H](n4cnc5c(N)ncnc54)[C@H](O)[C@@H]3O)c2cc1C [FAD] | these data proved that all CPF members of U. maydis bind FAD | these data proved that all CPF members of U. maydis bind FAD | these data proved that all CPF members of U. maydis bind FAD | these data proved that all CPF members of U. maydis bind FAD |  | 
Nc1nc2c(c(=O)[nH]1)[N+]1=CN(c3ccc(C(=O)N[C@@H](CCC(=O)O)C(=O)O)cc3)C[C@H]1CN2 [MTHF] |  |  |  |  | Methenyltetrahydrofolate (MTHF) is the second cofactor of Cry2 and Phr1 | Methenyltetrahydrofolate (MTHF) is the second cofactor of Cry2 and Phr1
